Measurements from PMC4965013, “Open Source Drug Discovery with the Malaria Box Compound Collection for Neglected Diseases and Beyond” (PLoS Pathogens, 2016).

Legend:
[1] = tested on: P. falciparum 3D7 trophozoites; experiment: Metabolomic fingerprint profiling LC-MS; assay type: cell-based, Plasmodium falciparum; set-up: UDP-D-glucose / ADP-D-glucose: unit not given here; conditions: for Acetyllysine / N-acetyl-L-ornithine / N-carbamoyl-L-aspartate / NADPH / dAMP / dCMP / dTDP / dTMP / dTTP / dihydroorotate / orotate / DLH / DLS/SDL/SID / PD / PEE / PVNF / 3-phosphoglycerate / ADP-D-glucose / ATP / CDP / D-sedoheptulose-1/7-phosphate / FAD / GMP / NAD+ / NADP+ / Octoluse Bisphosphate / Pyroglutamic acid / UDP-D-glucose / UDP-D-glucuronate / UDP-N-acetyl-glucosamine / UDP / UMP / UTP / a-ketoglutarate / citrate/isocitrate / cytidine / dATP / dGMP/AMP / fumarate / glucose-1/6-phosphate / glycerate / guanine / guanosine / hypoxanthine / indole / inosine / nicotinate / ornithine / phosphoenolpyruvate / pyruvate / ribose-phosphate / sarcosine/alanine / sn-glycerol-3-phosphate / succinate/methylmalonic acid / uridine / xanthosine: S2 Table Metabolomics; for Acetyllysine: metabolite Acetyllysine; for N-acetyl-L-ornithine: metabolite N-acetyl-L-ornithine; for N-carbamoyl-L-aspartate: metabolite N-carbamoyl-L-aspartate; for NADPH: metabolite NADPH; for dAMP: metabolite dAMP; for dCMP: metabolite dCMP; for dTDP: metabolite dTDP; for dTMP: metabolite dTMP; for dTTP: metabolite dTTP; for dihydroorotate: metabolite dihydroorotate; for orotate: metabolite orotate; for DLH: peptide DLH; for DLS/SDL/SID: peptide DLS/SDL/SID; for PD: peptide PD; for PEE: peptide PEE; for PVNF: peptide PVNF; for 3-phosphoglycerate: metabolite 3-phosphoglycerate; for ADP-D-glucose: metabolite ADP-D-glucose; for ATP: metabolite ATP; for CDP: metabolite CDP; for CDP / D-sedoheptulose-1/7-phosphate / GMP / Octoluse Bisphosphate / UDP / UMP / UTP / citrate/isocitrate / dGMP/AMP / fumarate / glucose-1/6-phosphate / glycerate / guanine / guanosine / inosine / pyruvate / sarcosine/alanine / succinate/methylmalonic acid / uridine / xanthosine: change in metabolite level after compound treatment; for D-sedoheptulose-1/7-phosphate: metabolite D-sedoheptulose-1/7-phosphate; for FAD: metabolite FAD; for GMP: metabolite GMP; for NAD+: metabolite NAD+; for NADP+: metabolite NADP+; for Octoluse Bisphosphate: metabolite Octoluse Bisphosphate; for Pyroglutamic acid: metabolite Pyroglutamic acid; for UDP-D-glucose: metabolite UDP-D-glucose; for UDP-D-glucuronate: metabolite UDP-D-glucuronate; for UDP-N-acetyl-glucosamine: metabolite UDP-N-acetyl-glucosamine; for UDP: metabolite UDP; for UMP: metabolite UMP; for UTP: metabolite UTP; for a-ketoglutarate: metabolite a-ketoglutarate; for citrate/isocitrate: metabolite citrate/isocitrate; for cytidine: metabolite cytidine; for dATP: metabolite dATP; for dGMP/AMP: metabolite dGMP/AMP; for fumarate: metabolite fumarate; for glucose-1/6-phosphate: metabolite glucose-1/6-phosphate; for glycerate: metabolite glycerate; for guanine: metabolite guanine; for guanosine: metabolite guanosine; for hypoxanthine: metabolite hypoxanthine; for indole: metabolite indole; for inosine: metabolite inosine; for 2_3-Diphosphoglyceric acid / 4-phosphopantothenate / 6-phospho-D-gluconate / FMN / IMP / Pyrophosphate / Sedoheptoluse bisphosphate / cyclic-AMP / glutathione disulfide / lactate / myo-inositol: metabolite level change after treatment; for nicotinate: metabolite nicotinate; for ornithine: metabolite ornithine; for phosphoenolpyruvate: metabolite phosphoenolpyruvate; for pyruvate: metabolite pyruvate; for ribose-phosphate: metabolite ribose-phosphate; for sarcosine/alanine: metabolite sarcosine/alanine; for sn-glycerol-3-phosphate: metabolite sn-glycerol-3-phosphate; for succinate/methylmalonic acid: metabolite succinate/methylmalonic acid; for uridine: metabolite uridine; for xanthosine: metabolite xanthosine
P. falciparum = experiment: EC50 listed in S2 Table Metabolomics (used to set the concentration tested); assay type: cell-based; conditions: Plasmodium falciparum; EC50 used for Factor_XEC50 in metabolomics; read-out: EC50_nM

SMILES: CCCCCCOC(=O)C1=C(C)NC(=O)NC1c1ccccc1F (stereo not drawn) [MMV007686]
- Acetyllysine [1]: -0.6021
- N-acetyl-L-ornithine [1]: -0.5247
- N-carbamoyl-L-aspartate [1]: -0.1545
- NADPH [1]: -0.6448
- dAMP [1]: -0.475
- dCMP [1]: 0.2166
- dTDP [1]: -0.8182
- dTMP [1]: -0.71
- dTTP [1]: -0.2978
- dihydroorotate [1]: 0.04156
- orotate [1]: 0.1913
- DLH [1]: 0.3631
- DLS/SDL/SID [1]: 0.06173
- PD [1]: -0.2456
- PEE [1]: -0.1279
- PVNF [1]: 0.4591
- 3-phosphoglycerate [1]: 0.4561
- ADP-D-glucose [1]: 0.08489
- ATP [1]: -0.09097
- CDP [1]: -1.124
- D-sedoheptulose-1/7-phosphate [1]: -0.6707
- FAD [1]: -0.2456
- GMP [1]: 0.9608
- NAD+ [1]: -0.04958
- NADP+ [1]: -0.001559
- Octoluse Bisphosphate [1]: -0.1324
- Pyroglutamic acid [1]: 0.9271
- UDP-D-glucose [1]: -0.1029
- UDP-D-glucuronate [1]: -0.1902
- UDP-N-acetyl-glucosamine [1]: -0.1743
- UDP [1]: -1.121
- UMP [1]: 0.7368
- UTP [1]: -0.5193
- a-ketoglutarate [1]: 0.8749
- citrate/isocitrate [1]: 0.6672
- cytidine [1]: 0.271
- dATP [1]: -0.2157
- dGMP/AMP [1]: -0.5696
- fumarate [1]: 0.5304
- glucose-1/6-phosphate [1]: -0.0799
- glycerate [1]: 0.5979
- guanine [1]: -0.1143
- guanosine [1]: -0.2083
- hypoxanthine [1]: 0.8142
- indole [1]: 0.4434
- inosine [1]: 0.6048
- 2_3-Diphosphoglyceric acid [1]: -0.3849
- 4-phosphopantothenate [1]: -0.1203
- 6-phospho-D-gluconate [1]: -0.2727
- FMN [1]: -0.1451
- IMP [1]: -0.1074
- Pyrophosphate [1]: -0.313
- Sedoheptoluse bisphosphate [1]: -0.1202
- cyclic-AMP [1]: -0.174
- glutathione disulfide [1]: -0.2538
- lactate [1]: 0.3995
- myo-inositol [1]: 0.04912
- nicotinate [1]: 0.5888
- ornithine [1]: 0.3712
- phosphoenolpyruvate [1]: 0.6171
- pyruvate [1]: 0.7724
- ribose-phosphate [1]: 0.6092
- sarcosine/alanine [1]: 0.1752
- sn-glycerol-3-phosphate [1]: 0.5669
- succinate/methylmalonic acid [1]: 0.1316
- uridine [1]: 0.4569
- xanthosine [1]: 0.7187
- EC50 (P. falciparum): 106 nM

SMILES: c1ccc2cc3c(Nc4ccc(N5CCOCC5)cc4)ccnc3cc2c1 [MMV006861]
- Acetyllysine [1]: 0.001155
- N-acetyl-L-ornithine [1]: 0.1202
- N-carbamoyl-L-aspartate [1]: 0.09461
- NADPH [1]: 0.6132
- dAMP [1]: -0.1929
- dCMP [1]: 0.2768
- dTDP [1]: 0.03656
- dTMP [1]: 0.1106
- dTTP [1]: -0.07535
- dihydroorotate [1]: 0.311
- orotate [1]: -0.21
- DLH [1]: 0.09611
- DLS/SDL/SID [1]: 0.08895
- PD [1]: 0.008487
- PEE [1]: 0.1992
- PVNF [1]: -0.07307
- 3-phosphoglycerate [1]: -0.2621
- ADP-D-glucose [1]: 0.04555
- ATP [1]: 0.1894
- CDP [1]: 0.09878
- D-sedoheptulose-1/7-phosphate [1]: 0.1691
- FAD [1]: 0.1498
- GMP [1]: 0.6017
- NAD+ [1]: 0.04038
- NADP+ [1]: 0.01746
- Octoluse Bisphosphate [1]: 0.06917
- Pyroglutamic acid [1]: 0.7013
- UDP-D-glucose [1]: -0.003086
- UDP-D-glucuronate [1]: -0.03493
- UDP-N-acetyl-glucosamine [1]: 0.008052
- UDP [1]: 0.1461
- UMP [1]: -0.13
- UTP [1]: -0.06454
- a-ketoglutarate [1]: -0.4694
- citrate/isocitrate [1]: -0.2815
- cytidine [1]: -0.002725
- dATP [1]: -0.03123
- dGMP/AMP [1]: -0.0595
- fumarate [1]: -0.1611
- glucose-1/6-phosphate [1]: 0.03738
- glycerate [1]: -0.6693
- guanine [1]: -0.08848
- guanosine [1]: -0.211
- hypoxanthine [1]: -0.05987
- indole [1]: -0.08261
- inosine [1]: -0.2117
- 2_3-Diphosphoglyceric acid [1]: 0.06563
- 4-phosphopantothenate [1]: -0.011
- 6-phospho-D-gluconate [1]: -0.02789
- FMN [1]: 0.1069
- IMP [1]: -0.3519
- Pyrophosphate [1]: 0.04971
- Sedoheptoluse bisphosphate [1]: 0.0295
- cyclic-AMP [1]: 0.009655
- glutathione disulfide [1]: -0.09687
- lactate [1]: -0.2479
- myo-inositol [1]: -0.35
- nicotinate [1]: -0.2896
- ornithine [1]: -0.2133
- phosphoenolpyruvate [1]: -0.1566
- pyruvate [1]: -0.275
- ribose-phosphate [1]: -0.01288
- sarcosine/alanine [1]: -0.00437
- sn-glycerol-3-phosphate [1]: -0.1431
- succinate/methylmalonic acid [1]: -0.003665
- uridine [1]: -0.2532
- xanthosine [1]: -0.2406
- EC50 (P. falciparum): 251 nM

SMILES: Cc1cc(C)c2c(c1)OCN(Cc1ccccc1Cl)C2 [MMV006558]
- Acetyllysine [1]: -2.938
- N-acetyl-L-ornithine [1]: -1.964
- N-carbamoyl-L-aspartate [1]: -1.702
- NADPH [1]: 1.445
- dAMP [1]: -0.9651
- dCMP [1]: -1.6
- dTDP [1]: -0.8236
- dTMP [1]: -0.6183
- dTTP [1]: -0.3776
- dihydroorotate [1]: -0.3745
- orotate [1]: -1.522
- DLH [1]: -1.617
- DLS/SDL/SID [1]: -1.662
- PD [1]: -0.9196
- PEE [1]: -0.2697
- PVNF [1]: -2.308
- 3-phosphoglycerate [1]: 0.4267
- ADP-D-glucose [1]: 0.5003
- ATP [1]: -0.07449
- CDP [1]: -0.458
- D-sedoheptulose-1/7-phosphate [1]: -0.2481
- FAD [1]: -0.09577
- GMP [1]: -0.6278
- NAD+ [1]: -0.187
- NADP+ [1]: 0.696
- Octoluse Bisphosphate [1]: 0.1942
- Pyroglutamic acid [1]: -0.3768
- UDP-D-glucose [1]: -0.01001
- UDP-D-glucuronate [1]: -0.03433
- UDP-N-acetyl-glucosamine [1]: -0.1316
- UDP [1]: -0.1918
- UMP [1]: -1.063
- UTP [1]: -0.2178
- a-ketoglutarate [1]: -0.938
- citrate/isocitrate [1]: -0.4783
- cytidine [1]: 0.109
- dATP [1]: -0.2852
- dGMP/AMP [1]: -0.5349
- fumarate [1]: -0.8198
- glucose-1/6-phosphate [1]: -0.2057
- glycerate [1]: -0.7466
- guanine [1]: -1.035
- guanosine [1]: -2.479
- hypoxanthine [1]: -0.7995
- indole [1]: -0.5445
- inosine [1]: -0.9523
- 2_3-Diphosphoglyceric acid [1]: 0.34
- 4-phosphopantothenate [1]: -0.8939
- 6-phospho-D-gluconate [1]: 0.2839
- FMN [1]: -0.2862
- IMP [1]: -0.2354
- Pyrophosphate [1]: 0.3685
- Sedoheptoluse bisphosphate [1]: 0.2016
- cyclic-AMP [1]: -0.8187
- glutathione disulfide [1]: -0.2625
- lactate [1]: -0.7314
- myo-inositol [1]: -0.7596
- nicotinate [1]: -0.1344
- ornithine [1]: -0.1775
- phosphoenolpyruvate [1]: 0.3748
- pyruvate [1]: -0.4201
- ribose-phosphate [1]: -0.1559
- sarcosine/alanine [1]: -0.2827
- sn-glycerol-3-phosphate [1]: 0.1135
- succinate/methylmalonic acid [1]: -0.725
- uridine [1]: -1.514
- xanthosine [1]: -1.032
- EC50 (P. falciparum): 268 nM
